Assays:
[1] = Ratio of drug level in Fisher 344 rat brain to rat 9L tumor cells implanted in Fisher 344 rat after 30 mins; format: ADME, cell-based; details: 0.5 h
[2] = Drug uptake in rat 9L cells xenografted Fisher 344 rat brain measured per gram of tissue; format: ADME, cell-based; details: Fischer 344, rat, read-out: Drug uptake
9L = assay: Cellular uptake in rat 9L cells after 30 mins measured per 0.5 million cells; format: ADME, cell-based; details: 0.5 h
[3] = Ratio of drug level in Fisher 344 rat brain to rat 9L tumor cells implanted in Fisher 344 rat after 15 mins; format: ADME, cell-based; details: 0.25 h
[4] = Drug uptake in rat 9L tumor implanted in Fischer 344 rat after 120 mins relative to control; format: ADME, Neoplasm; details: read-out: Drug uptake
[5] = Drug uptake in rat 9L tumor implanted in Fischer 344 rat after 60 mins relative to control; format: ADME, Neoplasm; details: read-out: Drug uptake
[6] = Ratio of drug level in Fisher 344 rat brain to rat 9L tumor cells implanted in Fisher 344 rat after 120 mins; format: ADME, cell-based; details: 2 h
[7] = Drug uptake in rat 9L tumor implanted in Fischer 344 rat after 30 mins relative to control; format: ADME, Neoplasm; details: read-out: Drug uptake
[8] = Drug uptake in rat 9L tumor implanted in Fischer 344 rat after 15 mins relative to control; format: ADME, Neoplasm; details: read-out: Drug uptake
[9] = Ratio of drug level in Fisher 344 rat brain to rat 9L tumor cells implanted in Fisher 344 rat after 60 mins; format: ADME, cell-based; details: 1 h

N[C@]1(C(=O)O)C[C@@H]([18F])C1 [FLUCICLOVINE F18]
Ratio [1]: 6.6

N[C@@]1(C(=O)O)CC[C@@H]1[18F]
tissue uptake [2]: 0.04 %ID/g
Drug uptake (9L): 3.3%
Ratio [3]: 12
tissue uptake at 2 h [4]: 0.6 %ID/g
tissue uptake at 1 h [5]: 0.65 %ID/g
Ratio [6]: 26
tissue uptake at 0.5 h [7]: 0.66 %ID/g
tissue uptake at 0.25 h [8]: 0.51 %ID/g
Ratio [9]: 14
Ratio [1]: 17

N[C@]1(C(=O)O)C[C@H](C[18F])C1
Ratio [1]: 6.9

N[C@]1(C(=O)O)C[C@H]([18F])C1
Ratio [1]: 7.6

N[C@]1(C(=O)O)C[C@@H](C[18F])C1
Ratio [1]: 8.9

Reference: ChEMBL document CHEMBL1156327, “Synthesis and biological evaluation of anti-1-amino-2-[18F]fluoro-cyclobutyl-1-carboxylic acid (anti-2-[18F]FACBC) in rat 9L gliosarcoma” (Bioorg Med Chem Lett, 2010)
